Assay results as given in patent US20020022052A1, “Transdermal delivery system” (priority 2000, published 2002).

Experiments:
[1] = Maximum achieved massage induced skin load (400 g vibrator, 10 minutes); details: particle size 1 micron ± 0.25 um
Excerpt: To counter this problem, Franz Diffusion Cells using the widely accepted Perfused Bovine Udder Skin model were fitted with vibrators which held a soft plastic head against the test skin in a massaging action. The vibrator was allowed to move randomly over the test sample using its own mass to provide the pressure. The total weight of a vibrator and head was 180 grams and the massage heads were 1.2 cm in diameter. The vibrators provided a massage pressure well below that which would be applied by a person finger massaging cream into the skin.
Testing was done by preparing sample creams as discussed below. Each sample was weighed and spread on the test skin. At this point the sample was subject to five minutes of the massage action described and then the remaining cream was removed and skin surface wiped dry. The weight of the absorbed amount was determined by weighing the removed material. The cell was not capped, the skin being left exposed to the air.
Tests were carried out to determine the maximum of both admixture and dry powder that could be induced into the stratum corneum. The vibrator weight was increased to 400 grams and vibration time to 10 minutes. Zinc gluconate (being of particular interest) was used as the active for these tests.

[2] = bovine
Experimental: All final tests were carried out with HPLC analysis.

[3] = ascorbic acid content above 14% by weight, water based; cited from earlier work
[4] = Skin tolerability trials of ascorbic acid admixtures; details: water free carriers, ascorbic acid levels as high as 35%
Excerpt: In addition, acidity is a function of the ionic dissociation of a material in solution. In most circumstances water is the primary dissociation medium and so solutions free of water generally have lower acidity. […] While it is impossible to totally exclude water, as there are minute traces in the ingredients utilized as carriers, acidity is kept to a minimum in what are essentially water free admixtures.

| particle size at which absorption began to be demonstrated [2] | Molecule | Maximum loading ([1]; carrier Eutanol G) | Maximum loading ([1]; carrier Nil (dry powder)) | skin reactions [3] | subjective discomfort compared with 12% water based admixture [4] | tolerability [4] |
| --- | --- | --- | --- | --- | --- | --- |
|  | zinc gluconate | 1.2 micrograms/cm^2 | 0.6 micrograms/cm^2 |  |  |  |
| below 7 microns | O=C1O[C@H]([C@@H](O)CO)C(O)=C1O [ascorbic acid] |  |  | burning, stinging and other skin reactions | less discomfort | well tolerated |
